Assay results reported in patent US12649750B2, “Macrocyclic compounds, compositions, and methods of using thereof” (Sionna Therapeutics Inc., priority 2022, dated 2026).

How the values were obtained:
NBD1 = target: T1, NBD1 (Homo sapiens, UniProt P13569); assay: Aggregation analysis using differential static light scattering (DSLS), thermal stability of NBD1 (ΔTagg); assay type: binding; details: ΔTagg versus DMSO control, NBD1 0.2 mg/ml
T1 construct: Purified recombinant NBD1 was produced using previously described methods; made in house
T1 sequence (P13569 423-646 limits assumed): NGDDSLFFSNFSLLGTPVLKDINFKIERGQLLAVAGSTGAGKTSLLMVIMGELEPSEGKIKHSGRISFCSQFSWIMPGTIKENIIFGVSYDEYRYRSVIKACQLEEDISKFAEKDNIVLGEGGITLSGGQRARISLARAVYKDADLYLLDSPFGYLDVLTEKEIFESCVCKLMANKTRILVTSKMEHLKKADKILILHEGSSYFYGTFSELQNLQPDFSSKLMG
Method in brief: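 Stabilisation is measured as the shift in aggregation onset of recombinant NBD1 (0.2 mg/ml, 2 mM ATP, 5 mM MgCl2, pH7.6) exposed to compound. Images are taken every 0.5° C. while heating at 1° C. per minute, and the inflection-point Tagg is corrected by the DMSO mean.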

CFTR = target: T2, CFTR (Homo sapiens, UniProt P13569, DEL508-508); assay: TECC24 AUC fold over DMSO @10 μM, CFTR-mediated transepithelial chloride transport in CF-HBE cells; assay type: cell-based; details: test agent AUC divided by DMSO vehicle AUC, primary CF-HBE cells, ΔF508 homozygous donor, 48 hours incubation
T2 construct: Primary human bronchial epithelial cells from a ΔF508 homozygous CF donor; host or cells: primary human bronchial epithelial cells (CF-HBE), ΔF508 homozygous donor
T2 sequence (P13569 with tags, fused parts or gaps DEL508-508): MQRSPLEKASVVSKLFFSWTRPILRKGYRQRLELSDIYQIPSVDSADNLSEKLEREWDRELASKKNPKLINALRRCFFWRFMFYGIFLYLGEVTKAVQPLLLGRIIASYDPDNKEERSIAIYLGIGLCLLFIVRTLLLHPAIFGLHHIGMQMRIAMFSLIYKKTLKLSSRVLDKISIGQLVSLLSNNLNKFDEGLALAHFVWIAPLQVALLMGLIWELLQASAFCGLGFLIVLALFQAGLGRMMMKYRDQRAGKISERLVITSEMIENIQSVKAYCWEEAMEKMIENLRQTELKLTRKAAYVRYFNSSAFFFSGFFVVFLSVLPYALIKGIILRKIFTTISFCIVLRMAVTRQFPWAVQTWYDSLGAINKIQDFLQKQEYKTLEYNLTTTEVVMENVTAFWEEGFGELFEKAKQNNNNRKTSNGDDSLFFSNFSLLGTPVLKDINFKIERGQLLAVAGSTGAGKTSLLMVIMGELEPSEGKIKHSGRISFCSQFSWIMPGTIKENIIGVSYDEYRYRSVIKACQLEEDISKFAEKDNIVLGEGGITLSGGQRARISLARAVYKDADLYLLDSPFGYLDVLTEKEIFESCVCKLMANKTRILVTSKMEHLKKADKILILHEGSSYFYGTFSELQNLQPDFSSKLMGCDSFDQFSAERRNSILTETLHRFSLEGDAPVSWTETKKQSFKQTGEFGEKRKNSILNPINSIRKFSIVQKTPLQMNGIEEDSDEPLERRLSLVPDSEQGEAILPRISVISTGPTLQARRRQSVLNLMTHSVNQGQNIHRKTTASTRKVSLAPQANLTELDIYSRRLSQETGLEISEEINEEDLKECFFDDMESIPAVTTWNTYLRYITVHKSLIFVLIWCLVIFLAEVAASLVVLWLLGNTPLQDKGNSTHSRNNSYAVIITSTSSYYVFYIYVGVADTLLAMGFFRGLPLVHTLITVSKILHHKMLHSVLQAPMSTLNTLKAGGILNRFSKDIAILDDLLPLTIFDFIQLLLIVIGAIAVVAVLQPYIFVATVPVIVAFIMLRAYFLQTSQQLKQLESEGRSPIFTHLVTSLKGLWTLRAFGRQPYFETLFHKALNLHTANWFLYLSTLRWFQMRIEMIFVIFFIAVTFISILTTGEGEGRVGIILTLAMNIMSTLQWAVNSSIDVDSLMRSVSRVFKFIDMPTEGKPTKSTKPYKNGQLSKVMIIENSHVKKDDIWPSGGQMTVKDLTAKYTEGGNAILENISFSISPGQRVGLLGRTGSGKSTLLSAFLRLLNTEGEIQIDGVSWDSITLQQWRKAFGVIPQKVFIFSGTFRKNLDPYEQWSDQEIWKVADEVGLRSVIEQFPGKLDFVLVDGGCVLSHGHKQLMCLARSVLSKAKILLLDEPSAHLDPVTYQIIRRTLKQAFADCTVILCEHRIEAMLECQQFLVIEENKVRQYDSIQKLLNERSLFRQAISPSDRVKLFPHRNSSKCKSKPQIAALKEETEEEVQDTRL
Method in brief: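 Primary ΔF508-homozygous CF bronchial epithelial cells on inserts were incubated 48 h at 36.5 °C with compound in IL-13-containing medium. VT and TEER were then recorded in current-clamp mode (pH 7.4 HEPES bath) with benzamil 10 μM, forskolin 10 μM, then CFTR inhibitor-172 20 μM. The IEQ AUC between forskolin and inhibitor was divided by vehicle AUC.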

| SMILES | DSLS 3D (100 μM ΔT) (NBD1) | TECC (AUC, 10 μM) (CFTR) |
| --- | --- | --- |
| [2H]C([2H])([2H])C1(c2cccc(CC(C)C(=O)O)c2)CCC(C)(C)CCS(=O)(=O)CCc2c(c(F)cc3[nH]ccc23)Oc2ccc(F)c(c2)-c2nc1nn2C (single isomer, unassigned) [Compound 119B, 3-[3-[22,28-difluoro-3,9,9-trimethyl-12,12-dioxo-6-(trideuteriomethyl)-24-oxa-12lambda6-thia-3,4,19,30-tetrazapentacyclo[23.3.1.12,5.015,23.016,20]triaconta-1(29),2(30),4,15,17,20,22,25,27-nonaen-6-yl]phenyl]-2-methyl-propanoic acid] | B (a value above 5 °C and less than or equal to 10 °C is marked “B”) | A (a TECC value less than 12 is marked “A”) |
| [2H]C([2H])([2H])C1(c2cccc(CC3(C(=O)O)CC3)c2)CCCC(C)(C)CS(=O)(=O)CCc2c(c(F)cc3[nH]ccc23)Oc2ccc(F)c(c2)-c2nc1nn2C (single isomer, unassigned) [Compound 120A, 1-[[3-[22,28-difluoro-3,10,10-trimethyl-12,12-dioxo-6-(trideuteriomethyl)-24-oxa-12λ6-thia-3,4,19,30-tetrazapentacyclo[23.3.1.12,5.015,23.016,20]triaconta-1(29),2(30),4,15,17,20,22,25,27-nonaen-6-yl]phenyl]methyl]cyclopropanecarboxylic Acid] | C (a value greater than 10 °C and less than or equal to 25 °C is marked “C”) | A (a TECC value less than 12 is marked “A”) |
| [2H]C([2H])([2H])C1(c2cccc(CC3(C(=O)O)CC3)c2)CCCC(C)(C)CS(=O)(=O)CCc2c(c(F)cc3[nH]ccc23)Oc2ccc(F)c(c2)-c2nc1nn2C (single isomer, unassigned) [Compound 120B, 1-[[3-[22,28-difluoro-3,10,10-trimethyl-12,12-dioxo-6-(trideuteriomethyl)-24-oxa-12λ6-thia-3,4,19,30-tetrazapentacyclo[23.3.1.12,5.015,23.016,20]triaconta-1(29),2(30),4,15,17,20,22,25,27-nonaen-6-yl]phenyl]methyl]cyclopropanecarboxylic Acid] | A (an ΔTagg value less than or equal to 5 °C is marked “A”) | A (a TECC value less than 12 is marked “A”) |
| Cn1nc2nc1-c1cc(ccc1F)Oc1c(F)c(F)c3[nH]ccc3c1CCS(=O)(=O)CC(C)(C)CCCC2(C#N)c1cccc(CC2(C(=O)O)CC2)c1 (single isomer, unassigned) [Compound 121A, 1-[[3-(6-cyano-21,22,28-trifluoro-3,10,10-trimethyl-12,12-dioxo-24-oxa-12λ6-thia-3,4,19,30-tetrazapentacyclo[23.3.1.12,5.015,23.016,20]triaconta-1(29),2(30),4,15,17,20,22,25,27-nonaen-6-yl)phenyl]methyl]cyclopropanecarboxylic Acid] | C (a value greater than 10 °C and less than or equal to 25 °C is marked “C”) | B (a value between 12-20 is marked “B”) |
| Cn1nc2nc1-c1cc(ccc1F)Oc1c(F)c(F)c3[nH]ccc3c1CCS(=O)(=O)CC(C)(C)CCCC2(C#N)c1cccc(CC2(C(=O)O)CC2)c1 (single isomer, unassigned) [Compound 121B, 1-[[3-(6-cyano-21,22,28-trifluoro-3,10,10-trimethyl-12,12-dioxo-24-oxa-12λ6-thia-3,4,19,30-tetrazapentacyclo[23.3.1.12,5.015,23.016,20]triaconta-1(29),2(30),4,15,17,20,22,25,27-nonaen-6-yl)phenyl]methyl]cyclopropanecarboxylic Acid] | A (an ΔTagg value less than or equal to 5 °C is marked “A”) | A (a TECC value less than 12 is marked “A”) |
| Cn1nc2nc1-c1cc(ccc1F)Oc1c(F)cc3[nH]ccc3c1CCS(=O)(=O)CC(C)(C)CCCC2(C#N)c1cccc(CC2(C(=O)O)CC2)c1 (single isomer, unassigned) [Compound 122A, 1-[[3-(6-cyano-22,28-difluoro-3,10,10-trimethyl-12,12-dioxo-24-oxa-12λ6-thia-3,4,19,30-tetrazapentacyclo[23.3.1.12,5.015,23.016,20]triaconta-1(29),2(30),4,15,17,20,22,25,27-nonaen-6-yl)phenyl]methyl]cyclopropanecarboxylic Acid] | C (a value greater than 10 °C and less than or equal to 25 °C is marked “C”) | A (a TECC value less than 12 is marked “A”) |
| Cn1nc2nc1-c1cc(ccc1F)Oc1c(F)cc3[nH]ccc3c1CCS(=O)(=O)CC(C)(C)CCCC2(C#N)c1cccc(CC2(C(=O)O)CC2)c1 (single isomer, unassigned) [Compound 122B, 1-[[3-(6-cyano-22,28-difluoro-3,10,10-trimethyl-12,12-dioxo-24-oxa-12λ6-thia-3,4,19,30-tetrazapentacyclo[23.3.1.12,5.015,23.016,20]triaconta-1(29),2(30),4,15,17,20,22,25,27-nonaen-6-yl)phenyl]methyl]cyclopropanecarboxylic Acid] | A (an ΔTagg value less than or equal to 5 °C is marked “A”) | A (a TECC value less than 12 is marked “A”) |
| Cn1nc2nc1-c1cc(ccc1F)Oc1c(F)cc3[nH]ccc3c1CCS(=O)(=O)CC(C)(C)OCCC2(C#N)c1cccc(CC2(C(=O)O)CC2)c1 (single isomer, unassigned) [Compound 123A, 1-[[3-(6-cyano-22,28-difluoro-3,10,10-trimethyl-12,12-dioxo-9,24-dioxa-12λ6-thia-3,4,19,30-tetrazapentacyclo[23.3.1.12,5.015,23.016,20]triaconta-1(29),2(30),4,15,17,20,22,25,27-nonaen-6-yl)phenyl]methyl]cyclopropanecarboxylic Acid] | A (an ΔTagg value less than or equal to 5 °C is marked “A”) | A (a TECC value less than 12 is marked “A”) |
| Cn1nc2nc1-c1cc(ccc1F)Oc1c(F)cc3[nH]ccc3c1CCS(=O)(=O)CC(C)(C)OCCC2(C#N)c1cccc(CC2(C(=O)O)CC2)c1 (single isomer, unassigned) [Compound 123B, 1-[[3-(6-cyano-22,28-difluoro-3,10,10-trimethyl-12,12-dioxo-9,24-dioxa-12λ6-thia-3,4,19,30-tetrazapentacyclo[23.3.1.12,5.015,23.016,20]triaconta-1(29),2(30),4,15,17,20,22,25,27-nonaen-6-yl)phenyl]methyl]cyclopropanecarboxylic Acid] | C (a value greater than 10 °C and less than or equal to 25 °C is marked “C”) | A (a TECC value less than 12 is marked “A”) |
| CC(Cc1cccc(C2(C#N)CCCC(C)(C)CS(=O)(=O)CCc3c(c(F)cc4[nH]ccc34)Oc3ccc(F)c(c3)-c3nc2nn3C)c1F)C(=O)O (single isomer, unassigned) [Compound 124A, 3-[3-(6-cyano-22,28-difluoro-3,10,10-trimethyl-12,12-dioxo-24-oxa-12λ6-thia-3,4,19,30-tetrazapentacyclo-[23.3.1.12,5.015,23.016,20]triaconta-1(29),2(30),4,15,17,20,22,25,27-nonaen-6-yl)-2-fluoro-phenyl]-2-methyl-propanoic Acid] | C (a value greater than 10 °C and less than or equal to 25 °C is marked “C”) | A (a TECC value less than 12 is marked “A”) |
| CC(Cc1cccc(C2(C#N)CCCC(C)(C)CS(=O)(=O)CCc3c(c(F)cc4[nH]ccc34)Oc3ccc(F)c(c3)-c3nc2nn3C)c1F)C(=O)O (single isomer, unassigned) [Compound 124B, 3-[3-(6-cyano-22,28-difluoro-3,10,10-trimethyl-12,12-dioxo-24-oxa-12λ6-thia-3,4,19,30-tetrazapentacyclo-[23.3.1.12,5.015,23.016,20]triaconta-1(29),2(30),4,15,17,20,22,25,27-nonaen-6-yl)-2-fluoro-phenyl]-2-methyl-propanoic Acid] | B (a value above 5 °C and less than or equal to 10 °C is marked “B”) | A (a TECC value less than 12 is marked “A”) |
| C[C@@H](Cc1cccc(C2(C)CCCC(C)(C)CS(=O)(=O)CCc3c(c(F)cc4[nH]ccc34)C(=O)c3ccc(F)c(c3)-c3nc2nn3C)c1)C(=O)O (single isomer, unassigned) [Compound 125A] | B (a value above 5 °C and less than or equal to 10 °C is marked “B”) | B (a value between 12-20 is marked “B”) |
| C[C@@H](Cc1cccc(C2(C)CCCC(C)(C)CS(=O)(=O)CCc3c(c(F)cc4[nH]ccc34)C(=O)c3ccc(F)c(c3)-c3nc2nn3C)c1)C(=O)O (single isomer, unassigned) [Compound 125B] | C (a value greater than 10 °C and less than or equal to 25 °C is marked “C”) | B (a value between 12-20 is marked “B”) |
| C[C@H](Cc1cccc(C2(C)CCCC(C)(C)CS(=O)(=O)CCc3c(c(F)cc4[nH]ccc34)C(=O)c3ccc(F)c(c3)-c3nc2nn3C)c1)C(=O)O (single isomer, unassigned) [Compound 126A] | C (a value greater than 10 °C and less than or equal to 25 °C is marked “C”) | B (a value between 12-20 is marked “B”) |
